16 compounds from patent US20080070954A1, “Acylurea Connected And Sulfonylurea Connected Hydroxamates” (S*BIO PTE LTD., priority 2003, published 2008) can be followed below.

The target in test [1] is T1, HDAC1 enzyme (recombinant GST-HDAC1) (Homo sapiens, UniProt Q13547).
T1 construct: Amplification of human HDAC1 and HDAC8 coding region from this cDNA library; made in house; host or cells: SF9 insect cells (baculovirus, pDEST20 vector)
The experiment in a line: In vitro HDAC assay for determination of IC50 values (BIOMOL fluorescent-based), HDAC1. It counts as biochemical. As to conditions: 600 nM HDAC1 enzyme, 500 μM Flur de lys generic substrate, 2 h room temperature. As to the method:
Human cDNA library was prepared using cultured SW620 cells. Amplification of human HDAC1 and HDAC8 coding region from this cDNA library was cloned separately into the baculovirus expression pDEST20 vector and pFASTBAC vector respectively (GATEWAY Cloning Technology, Invitrogen Pte Ltd). The pDEST20-HDAC1 and pFASTBAC-HTGST-HDAC8 constructs were confirmed by DNA sequencing. Recombinant baculovirus was prepared using the Bac-To-Bac method following the manufacturer's instruction (Invitrogen Pte Ltd). Baculovirus titer was determined by plaque assay to be about 10^8 PFU/ml.
(§1) Expression of GST-HDAC1 or HTGST-HDAC8 was done by infecting SF9 cells (Invitrogen Pte Ltd) with pDEST20-HDAC1 or pFASTBAC-GST-HDAC8 baculovirus at MOI=1 for 48 h. Soluble cell lysate was incubated with pre-equilibrated Glutathione Sepharose 4B beads (Amersham) at 4° C. for 2 h. The beads were washed with PBS buffer for 3 times. The GST-HDAC1 protein or GST-HDAC8 protein was eluted by elution buffer containing 50 mM Tris, pH8.0, 150 mM NaCl, 1% Triton X-100 and 10 mM or 20 mM reduced Glutathione. The purified GST-HDAC1 protein or purified GST-HDAC8 protein was dialyzed with HDAC storage buffer containing 10 mM Tris, pH7.5, 100 mM NaCl and 3 mM MgCl2. 20% Glycerol was added to purified GST-HDAC1 protein or purified GST-HDAC8 before storage at −80° C.
The assay has been carried out in 96 well format and the BIOMOL fluorescent-based HDAC activity assay has been applied. The reaction composed of assay buffer, containing 25 mM Tris pH 7.5, 137 mM NaCl, 2.7 mM KCl, 1 mM MgCl2, 1 mg/ml BSA, tested compounds, 500 nM HDAC8 enzyme or 600 nM HDAC1 enzyme, 200 μM Flur de lys p53 peptide substrate for HDAC8 enzyme or 500 μM Flur de lys generic substrate for HDAC1 enzyme and subsequently was incubated at room temperature for 2 h. Flur de lys Developer was added and the reaction was incubated for 10 min. Briefly, deacetylation of the substrate sensitizes it to the developer, which then generates a fluorophore. The fluorophore is excited with 360 nm light and the emitted light (460 nm) is detected on a fluorometric plate reader (Tecan Ultra Microplate detection system, Tecan Group Ltd.).
(§2) The analytical software, Prism 3.0® (GraphPad Software Inc) has been used to generate IC50 from a series of data.

The target of test [2] is T2, HDAC8 enzyme (recombinant GST-HDAC8) (Homo sapiens, UniProt Q9BY41).
T2 construct: Amplification of human HDAC1 and HDAC8 coding region from this cDNA library; made in house; host or cells: SF9 insect cells (baculovirus, pFASTBAC vector)
T2 sequence (Q9BY41 1-377): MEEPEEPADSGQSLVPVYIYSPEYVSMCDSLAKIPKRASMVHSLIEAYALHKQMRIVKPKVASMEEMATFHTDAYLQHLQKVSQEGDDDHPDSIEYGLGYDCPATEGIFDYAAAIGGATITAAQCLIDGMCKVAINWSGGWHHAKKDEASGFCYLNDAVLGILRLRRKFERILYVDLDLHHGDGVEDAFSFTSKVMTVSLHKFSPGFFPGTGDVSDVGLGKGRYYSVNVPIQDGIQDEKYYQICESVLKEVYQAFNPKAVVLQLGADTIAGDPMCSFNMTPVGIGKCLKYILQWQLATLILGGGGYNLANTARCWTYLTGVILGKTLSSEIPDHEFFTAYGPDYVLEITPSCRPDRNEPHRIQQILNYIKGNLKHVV
The experiment in a line: In vitro HDAC assay for determination of IC50 values (BIOMOL fluorescent-based), HDAC8. Format: biochemical. The following applies: 500 nM HDAC8 enzyme, 200 μM Flur de lys p53 peptide substrate, 2 h room temperature. As for the experimental part: Human cDNA library was prepared using cultured SW620 cells. Amplification of human HDAC1 and HDAC8 coding region from this cDNA library was cloned separately into the baculovirus expression pDEST20 vector and pFASTBAC vector respectively (GATEWAY Cloning Technology, Invitrogen Pte Ltd). […] Recombinant baculovirus was prepared using the Bac-To-Bac method following the manufacturer's instruction (Invitrogen Pte Ltd).
as §1
The assay has been carried out in 96 well format and the BIOMOL fluorescent-based HDAC activity assay has been applied. […] Flur de lys Developer was added and the reaction was incubated for 10 min. Briefly, deacetylation of the substrate sensitizes it to the developer, which then generates a fluorophore. The fluorophore is excited with 360 nm light and the emitted light (460 nm) is detected on a fluorometric plate reader (Tecan Ultra Microplate detection system, Tecan Group Ltd.).
as §2

For test [3], the system named is Colo205 human colon cancer cell line. The experiment in a line: Cell-based proliferation assay for determination of GI50 values, Colo205. As to conditions: COLO 205, Colo205 cells, 96 h treatment, cyquant assay, read-out: Colo 205 Gl50. As to the method: (§3) Human colon cancer cell lines (Colo205) and human breast cancer cell lines (MDA-MB435 and MDA-MB231) were obtained from ATCC. Colo205 cells were cultivated in RPMI 1640 containing 2 mM L-Glutamine, 5% FBS, 1.0 mM Na Pyruvate. MDA-MB231 cells were cultivated in RPMI 1640 containing 2 mM L-glutamine, 5% FBS. MDA-MB435 cells were cultivated in DMEM containing 2 mM L-Glutamine, 5% FBS. Colo205 cells were seeded in 96-wells plate at 5000 cells per well respectively. MDA-MB435 and MDA-MB231 cells were seeded in 96-wells plate at 6000 cells per well. The plates were incubated at 37° C., 5% CO2, for 24 h. Cells were treated with compounds at various concentrations for 96 h. Cell growth was then monitored using cyquant cell proliferation assay (Invitrogen Pte Ltd). Dose response curves were plotted to determine GI50 values for the compounds using XL-fit (ID Business Solution, Emeryville, Calif.).

The subject of test [4] is MDA-MB231 human breast cancer cell line. The experiment in a line: Cell-based proliferation assay for determination of GI50 values, MDA-MB231. As to conditions: MDA-MB231 cells, 96 h treatment, cyquant assay. As for the experimental part:
as §3

Test [5] relates to acetylated histone H3 in Colo205 cells. The test can be described thus: Histone acetylation assay (western blot), histone H3. It counts as cell-based, human. On the set-up: key: “Active” means accumulation of acetylated histone was observed when compared with control (without compound). The following applies: Colo205 cells, 0.1, 1, 5 and 10 μM, 24 h. As to the method:
(§4) A hallmark of histone deacetylase (HDAC) inhibition is the increase in the acetylation level of histones. Histone acetylation, including H3, H4, H2A and H2B can be detected by immuno-blotting (western-blot). Colo205 cells, approximately 1.5×10^6 cells/10 cm dish, were seeded in the previously described medium, cultivated for 24 h and subsequently treated with HDAC inhibitory agents at 0.1, 1, 5 and 10 μM final concentration. After 24 h, cells were harvested and lysed according to the instruction from Sigma Mammalian Cell Lysis Kit. The protein concentration was quantified using BCA method (Sigma Pte Ltd). The protein lysate was separated using 4-12% bis-tris SDS-PAGE gel (Invitrogen Pte Ltd) and was transferred onto PVDF membrane (BioRad Pte Ltd). The membrane was probed separately using primary antibody specific for acetylated H3, acetylated H4 or acetylated H2A (Upstate Pte Ltd). The detection antibody, goat anti rabbit antibody conjugated with Horse radish peroxidase (HRP) was used according to the manufacturer instruction (Pierce Pte Ltd). After removing the detection antibody from the membrane, an enhanced chemiluminescent substrate for detection of HRP (Pierce Pte Ltd) was added onto the membrane. After removing the substrate, the membrane was exposed to an X-ray film (Kodak) for 1 sec-20 mins. The X-ray film was developed using the X-ray film processor. The density of each band observed on the developed film could be analysed using UVP Bioimaging software (UVP, Inc, Upland, Calif.). The values were then normalized against the density of actin in the corresponding samples to obtain the expression of the protein.
In general terms: In western blotting, separated proteins are transferred to a membrane and probed.

The test system of test [6] is MDA-MB435 human breast cancer cell line. The test can be described thus: Cell-based proliferation assay for determination of GI50 values, MDA-MB435. As to conditions: MDA-MB435 cells, 96 h treatment, cyquant assay. As to the method:
as §3

Test [7] has as its system acetylated histone H4 in Colo205 cells. The experiment in a line: Histone acetylation assay (western blot), histone H4. It counts as cell-based, human. On the set-up: key: “Active” means accumulation of acetylated histone was observed when compared with control (without compound). The following applies: Colo205 cells, 0.1, 1, 5 and 10 μM, 24 h. As for the experimental part:
as §4

pIC50: −log10 of the molar value.

T1 sequence (Q13547 whole entry): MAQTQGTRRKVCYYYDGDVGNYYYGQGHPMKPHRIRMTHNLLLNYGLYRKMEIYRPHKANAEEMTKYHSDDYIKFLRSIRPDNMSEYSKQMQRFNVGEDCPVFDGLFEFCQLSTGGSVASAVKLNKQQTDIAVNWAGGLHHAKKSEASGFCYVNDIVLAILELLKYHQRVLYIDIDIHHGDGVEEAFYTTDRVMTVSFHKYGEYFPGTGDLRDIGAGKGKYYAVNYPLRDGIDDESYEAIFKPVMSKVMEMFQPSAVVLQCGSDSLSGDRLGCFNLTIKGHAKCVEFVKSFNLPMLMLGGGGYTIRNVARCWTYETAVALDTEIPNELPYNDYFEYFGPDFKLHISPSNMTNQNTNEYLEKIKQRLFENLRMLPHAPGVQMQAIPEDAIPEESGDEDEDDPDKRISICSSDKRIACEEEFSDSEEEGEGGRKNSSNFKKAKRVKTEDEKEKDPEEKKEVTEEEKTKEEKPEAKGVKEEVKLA

What is called pIC50 is the negative decadic logarithm of the IC50, by convention in mol/L. Regarding `O=C(/C=C/c1ccc(CN(CCc2ccccc2)C(=O)NC(=O)c2ccccc2)cc1)NO` [Example 23, 3-[4-(3-Benzoyl-1-phenethyl-ureidomethyl)-phenyl]-N-hydroxy-acrylamide], the negative-log IC50 (pIC50) in test [1] is 7.92; in test [2], 6.70. In addition, in test [3], the GI50 is 150 nM. The “MDA-MB231 Gl50” value in test [4] amounted to 0.26 µM. In test [5], the “Histone 3 acetylation” value is “Active”.

For the compound `O=C(CCCCCCCNC(=O)NC(=O)c1ccccc1)NO` [Example 12, 8-(3-Benzoyl-ureido)-octanoic acid hydroxyamide], the pIC50 is 7.01 in test [1] and 6.40 in test [2]. For the same compound, the GI50 in test [3] worked out at 8030 nM.

Consider `O=C(/C=C/c1ccc(CN(CCN2CCCCC2)C(=O)NC(=O)c2ccccc2)cc1)NO` [Example 46, 3-{4-[3-Benzoyl-1-(2-piperidin-1-yl-ethyl)-ureidomethyl]-phenyl}-N-hydroxy-acrylamide], for which the negative-log IC50 (pIC50) in test [1] was 7.32; in test [2], 6.64. Besides, the GI50 in test [3] was determined as 630 nM. Moreover, in test [5], the “Histone 3 acetylation” value is recorded as “Active”.

Turning to `Cc1ccc(S(=O)(=O)NC(=O)NCCCCCC(=O)NO)cc1` [Example 1, 6-[3-(toluene-4-sulfonyl)ureido]-hexanoic acid hydroxyamide], the negative logarithm of the IC50 (pIC50) in test [1] was under 4.00; in test [2] it was 6.10.

In the case of `O=C(/C=C/c1ccc(CN(CCc2ccc(Br)cc2)C(=O)NC(=O)c2ccccc2)cc1)NO` [Example 25, 3-(4-{3-Benzoyl-1-[2-(4-bromo-phenyl)-ethyl]-ureidomethyl}-phenyl)-N-hydroxy-acrylamide], in test [3], the GI50 came to 160 nM.

Consider `O=C(/C=C/c1ccc(CN(CCN2CCCC2)C(=O)NC(=O)c2ccccc2)cc1)NO` [Example 47, 3-{4-[3-Benzoyl-1-(2-pyrrolidin-1-yl-ethyl)-ureidomethyl]-phenyl}-N-hydroxy-acrylamide], for which the pIC50 in test [1] was 7.62; in test [2] it was 6.60.

In the case of `O=C(NCc1ccc(C(=O)NO)cc1)NC(=O)c1ccccc1` [Example 6, 4-(3-Benzoyl-ureidomethyl)-N-hydroxy-benzamide], the figures for the pIC50 in test [1] and in test [2] were 6.89 and 7.39, respectively. In addition, the GI50 in test [3] came to 1910 nM. For the same compound, the “MDA-MB231 Gl50” value in test [4] came out at 1.92 µM. Moreover, the “MDA-MB435 Gl50” value in test [6] is 1.24 µM. The “Histone 3 acetylation” value in test [5] is reported as “Active”. Further, the “Histone 4 acetylation” value in test [7] is reported as “Active”.

Turning to `Cc1ccc(S(=O)(=O)NC(=O)NCCCCCCCC(=O)NO)cc1` [Example 14], the negative-log IC50 (pIC50) in test [1] was 5.95; in test [2], 7.29.

Turning to `Cc1ccc(S(=O)(=O)NC(=O)NCc2ccc(C(=O)NO)cc2)cc1` [Example 4], the pIC50 in test [1] is 5.53; in test [2], 7.31.

As to `O=C(CCCCCCNC(=O)NC(=O)c1ccccc1)NO` [Example 13, 7-(3-Benzoyl-ureido)-heptanoic acid hydroxyamide], the negative-log IC50 (pIC50) in test [1] was 6.82; in test [2], 6.57. Moreover, the GI50 in test [3] was determined as 2680 nM. Further, the “Histone 3 acetylation” value in test [5] is listed as “Active”.

As for `O=C(Cc1cccc(NC(=O)NC(=O)c2ccccc2)c1)NO` [Example 7, 2-[3-(3-Benzoyl-ureido)-phenyl]-N-hydroxy-acetamide], the results for the pIC50 in test [1] and in test [2] were under 4.00 and 6.82, respectively.

On to `Cc1ccc(S(=O)(=O)NC(=O)Nc2ccc(/C=C/C(=O)NO)cc2)cc1` [Example 2], for which the pIC50 in test [1] is 5.58; in test [2], 7.40.

`O=C(Cc1ccc(NC(=O)NC(=O)c2ccccc2)cc1)NO` [Example 8, 2-[4-(3-Benzoyl-ureido)-phenyl]-N-hydroxy-acetamide]: the figures for the pIC50 in test [1] and in test [2] were under 4.00 and 7.14, respectively.

As to `Cc1ccc(S(=O)(=O)NC(=O)Nc2ccc(CC(=O)NO)cc2)cc1` [Example 5, N-Hydroxy-2-{4-[3-(toluene-4-sulfonyl)ureido]-phenyl}acetamide], the values for the negative-log IC50 (pIC50) in test [1] and in test [2] were under 4.00 and 6.85, respectively.

Regarding `O=C(CCCCCNC(=S)NC(=O)c1ccccc1)NO` [Example 18, 6-(3-Benzoyl-thioureido)-hexanoic acid hydroxyamide], the values for the negative logarithm of the IC50 (pIC50) in test [1] and in test [2] were 7.57 and 6.28, respectively. Also, the GI50 in test [3] was 2670 nM. The “Histone 3 acetylation” value in test [5] was “Active”.

As to `O=C(NO)c1ccc(CN2CCN(C(=O)NC(=O)c3ccccc3)CC2)cc1` [Example 30, 4-(4-Benzoylaminocarbonyl-piperazin-1-ylmethyl)-N-hydroxy-benzamide], the results for the negative logarithm of the IC50 (pIC50) in test [1] and in test [2] were 5.54 and 6.34, respectively.
